Bridge positions count the residues as written; N and C are the ends. Square brackets hold non-standard residues; d marks the D form. Peptide text beside a SMILES is read from it. Bip = N[C@@H](Cc1ccc(-c2ccccc2)cc1)C(=O)O; NMeE = CN[C@@H](CCC(=O)O)C(=O)O; NMeA = CN[C@@H](C)C(=O)O
Molecular target: human PCSK9 (Homo sapiens, UniProt Q8NBP7)
Assay: PCSK9 ligand binding assay (TR-FRET): interference with binding of human PCSK9 to human LDLR
Settings: PCSK9 FRET assay, efficacy (Amax); 0% = DMSO, 100% = 1 uM unlabeled human PCSK9

human PCSK9, sequence (Q8NBP7 153-692): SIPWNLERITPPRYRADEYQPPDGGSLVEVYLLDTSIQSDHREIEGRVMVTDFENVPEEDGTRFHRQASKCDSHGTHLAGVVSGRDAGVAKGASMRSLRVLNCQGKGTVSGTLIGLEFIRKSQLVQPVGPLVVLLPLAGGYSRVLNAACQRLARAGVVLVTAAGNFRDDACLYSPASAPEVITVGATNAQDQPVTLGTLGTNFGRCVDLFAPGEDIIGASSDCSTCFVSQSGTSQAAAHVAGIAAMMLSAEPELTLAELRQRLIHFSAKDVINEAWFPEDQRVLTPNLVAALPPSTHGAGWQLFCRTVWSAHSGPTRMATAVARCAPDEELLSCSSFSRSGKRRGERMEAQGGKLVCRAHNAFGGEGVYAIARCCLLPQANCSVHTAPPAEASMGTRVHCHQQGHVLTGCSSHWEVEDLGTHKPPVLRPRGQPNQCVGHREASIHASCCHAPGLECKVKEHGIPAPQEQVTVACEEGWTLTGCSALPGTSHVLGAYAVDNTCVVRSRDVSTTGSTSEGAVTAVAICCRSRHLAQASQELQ
human PCSK9, sequence (Q8NBP7 31-152 partner limits assumed): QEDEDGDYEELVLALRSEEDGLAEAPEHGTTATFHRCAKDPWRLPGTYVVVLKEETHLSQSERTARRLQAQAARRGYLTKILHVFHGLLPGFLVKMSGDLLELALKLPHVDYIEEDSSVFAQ

Maximum % inhibition [%]	SMILES
61	CCNC(=O)[C@@H]1CSCC(=O)N[C@@H](Cc2ccccc2)C(=O)N[C@@H](C(C)C)C(=O)N[C@@H](CC(N)=O)C(=O)N[C@@H]([C@@H](C)O)C(=O)N[C@@H]([C@@H](C)O)C(=O)N[C@@H](Cc2ccccc2)C(=O)N(C)[C@@H](C)C(=O)N[C@@H](Cc2ccc(-c3ccccc3)cc2)C(=O)N(C)[C@@H](C)C(=O)N(C)[C@@H](CCC(=O)O)C(=O)N[C@@H](C)C(=O)N2CCC[C@H]2C(=O)N1 [Example 3-1, 3-((3R,9S,12S,15S,18S,21S,24S,27S,30S,33S,36S,39S,44aS)-30-([1,1′-biphenyl]-4-ylmethyl)-15-(2-amino-2-oxoethyl)-9,24-dibenzyl-3-(ethylcarbamoyl)-18,21-bis((R)-1-hydroxyethyl)-12-isopropyl-26,27,32,33,35,39-hexamethyl-1,7,10,13,16,19,22,25,28,31,34,37,40-tridecaoxodotetracontahydro-6H-pyrrolo[2,1-f][1]thia[4,7,10,13,16,19,22,25,28,31,34,37,40]tridecaazacyclodotetracontin-36-yl)propanoic acid] ({CH2CO}-FVNTTF[NMeA][Bip][NMeA][NMeE]APC-NHEt; thioether N-13)
83	CCNC(=O)[C@@H]1CSCC(=O)N[C@@H](Cc2ccccc2)C(=O)N[C@@H](C(C)C)C(=O)N2CCC[C@H]2C(=O)N[C@@H]([C@@H](C)O)C(=O)N[C@@H]([C@@H](C)O)C(=O)N[C@@H](Cc2ccccc2)C(=O)N(C)[C@@H](C)C(=O)N[C@@H](Cc2ccc(-c3ccccc3)cc2)C(=O)N(C)[C@@H](C)C(=O)N[C@@H](CCC(=O)O)C(=O)N[C@@H](C)C(=O)N2CCC[C@H]2C(=O)N1 [Example 3-2, Ac*-F-V-P-T-T-F-(N-Me)A-B-(N-Me)A-E-A-P-C*-NHEt] ({CH2CO}-FVPTTF[NMeA][Bip][NMeA]EAPC-NHEt; thioether N-13)
87	CCNC(=O)[C@@H]1CSCC(=O)N[C@@H](Cc2ccccc2)C(=O)N[C@@H](C(C)C)C(=O)N2CCC[C@H]2C(=O)N[C@@H]([C@@H](C)O)C(=O)N[C@@H]([C@@H](C)O)C(=O)N[C@@H](Cc2ccc(-c3ccccc3)cc2)C(=O)N(C)[C@@H](C)C(=O)N[C@@H](Cc2ccc(-c3ccccc3)cc2)C(=O)N(C)[C@@H](C)C(=O)N[C@@H](CCC(=O)O)C(=O)N[C@@H](C)C(=O)N2CCC[C@H]2C(=O)N1 [Example 3-3, Ac*-F-V-P-T-T-B-(N-Me)A-B-(N-Me)A-E-A-P-C*-NHEt]
49	CCNC(=O)[C@@H]1CSCC(=O)N[C@@H](Cc2ccccc2)C(=O)N[C@@H](C(C)C)C(=O)N2CCC[C@H]2C(=O)N[C@@H]([C@@H](C)O)C(=O)N[C@@H]([C@@H](C)O)C(=O)N[C@@H](Cc2ccc(-c3ccccc3)cc2)C(=O)N(C)[C@@H](C)C(=O)N[C@@H](Cc2ccc(-c3ccccc3)cc2)C(=O)N(C)[C@@H](C)C(=O)N[C@@H](C)C(=O)N[C@@H](C)C(=O)N2CCC[C@H]2C(=O)N1 [Example 3-4, Ac*-F-V-P-T-T-B-(N-Me)A-B-(N-Me)A-A-A-P-C*-NHEt] ({CH2CO}-FVPTT[Bip][NMeA][Bip][NMeA]AAPC-NHEt; thioether N-13)

— US12209144B2, “Cyclic peptides as proprotein convertase subtilisin/kexin type 9 (PCSK9) inhibitors for the treatment of metabolic disorders” (Novartis AG, priority 2018, dated 2025)
